Measured values: BigSolDB 2.1

O=[N+]([O-])/N=C1\NCCN1Cc1ccc(Cl)nc1
Details | solubility (mole fraction)
in 1,2-dichloroethane, 299.96 K | 0.00987
in 1,2-dichloroethane, 302.87 K | 0.0108
in 1,2-dichloroethane, 304.97 K | 0.0116
in 1,2-dichloroethane, 310.08 K | 0.0142
in 1,2-dichloroethane, 314.14 K | 0.0161
in 1,2-dichloroethane, 317.43 K | 0.0183
in 1,2-dichloroethane, 321.31 K | 0.0213
in 1,2-dichloroethane, 325.67 K | 0.0243
in 1,2-dichloroethane, 328.74 K | 0.0271
in 1,2-dichloroethane, 331.34 K | 0.0309
in 1,2-dichloroethane, 333.75 K | 0.0345
in 1,2-dichloroethane, 336.91 K | 0.0392
in 1,2-dichloroethane, 339.95 K | 0.0442
in 1,2-dichloroethane, 342.81 K | 0.049
in 1,2-dichloroethane, 345.2 K | 0.0546
in 1,2-dichloroethane, 347.1 K | 0.0612
in 2-butanone, 293.07 K | 0.0159
in 2-butanone, 299.44 K | 0.0192
in 2-butanone, 302.54 K | 0.0213
in 2-butanone, 306.3 K | 0.0238
in 2-butanone, 308.85 K | 0.026
in 2-butanone, 311.24 K | 0.0281
in 2-butanone, 314.22 K | 0.0308
in 2-butanone, 318.19 K | 0.0346
in 2-butanone, 320.83 K | 0.0379
in 2-butanone, 323.87 K | 0.0419
in 2-butanone, 326.73 K | 0.046
in 2-butanone, 329.81 K | 0.0504
in 2-butanone, 332.97 K | 0.0573
in 2-butanone, 335.21 K | 0.0617
in 2-butanone, 337.54 K | 0.0678
in 2-butanone, 340.65 K | 0.0749
in 2-butanone, 343.2 K | 0.0823
in acetone, 294.64 K | 0.012
in acetone, 300.05 K | 0.0141
in acetone, 301.76 K | 0.0148
in acetone, 305.05 K | 0.0162
in acetone, 307.77 K | 0.0175
in acetone, 310.17 K | 0.0187
in acetone, 317.25 K | 0.0232
in acetone, 319.14 K | 0.0248
in acetone, 321.59 K | 0.0265
in acetone, 327.89 K | 0.0325
in acetone, 330.2 K | 0.0353
in chloroform, 292.04 K | 0.00848
in chloroform, 294.49 K | 0.00916
in chloroform, 298.22 K | 0.0102
in chloroform, 303.84 K | 0.0115
in chloroform, 307.04 K | 0.0123
in chloroform, 310.05 K | 0.0132
in chloroform, 314.03 K | 0.0143
in chloroform, 316.75 K | 0.0153
in chloroform, 319.07 K | 0.0167
in chloroform, 321.74 K | 0.0183
in chloroform, 324.64 K | 0.0198
in chloroform, 326.71 K | 0.0215
in chloroform, 330.16 K | 0.024
in dichloromethane, 293.97 K | 0.0132
in dichloromethane, 295.96 K | 0.0146
in dichloromethane, 298 K | 0.0157
in dichloromethane, 300.05 K | 0.0166
in dichloromethane, 302.6 K | 0.0177
in dichloromethane, 303.99 K | 0.0189
in dichloromethane, 305.96 K | 0.0199
in dichloromethane, 307.8 K | 0.0211
in dichloromethane, 309.6 K | 0.0223
in dichloromethane, 311.66 K | 0.0236
in dichloromethane, 313.14 K | 0.0248
in dichloromethane, 313.93 K | 0.0254
in ethanol, 298.69 K | 0.000502
in ethanol, 301.12 K | 0.000569
in ethanol, 305.66 K | 0.000794
in ethanol, 308.87 K | 0.001
in ethanol, 312.34 K | 0.00118
in ethanol, 315.96 K | 0.00136
in ethanol, 318.07 K | 0.00151
in ethanol, 320.74 K | 0.0017
in ethanol, 323.96 K | 0.00197
in ethanol, 327.54 K | 0.00225
in ethanol, 330.06 K | 0.00251
in ethanol, 333.57 K | 0.00289
in methanol, 293.79 K | 0.00102
in methanol, 295.38 K | 0.00111
in methanol, 299.81 K | 0.00136
in methanol, 302.15 K | 0.00156
in methanol, 305.86 K | 0.00179
in methanol, 309.32 K | 0.00211
in methanol, 312.62 K | 0.00247
in methanol, 315.38 K | 0.00283
in methanol, 320.59 K | 0.00361
in methanol, 323.37 K | 0.00413
in methanol, 328.11 K | 0.0053
in methanol, 330.75 K | 0.00598
in methanol, 333.34 K | 0.00676
in water, 302.76 K | 2.68e-05
in water, 308.62 K | 3.94e-05
in water, 314.75 K | 4.87e-05
in water, 324.15 K | 8.35e-05
in water, 329.34 K | 0.000119
in water, 330.75 K | 0.000132
in water, 334.52 K | 0.000169
in water, 340.44 K | 0.000231
in water, 344.57 K | 0.000287
in water, 346.87 K | 0.000323
in water, 348.94 K | 0.000363
